Series [1] concerns the target T1, ERK2 (Homo sapiens, UniProt P28482).
T1 construct: purchased R&D 1230-KS-010
In words: ERK2 enzyme activity test (ADP-Glo Kinase Assay). The class given is biochemical. The settings on record: chemiluminescence. The procedure:
The purpose of this experiment is to detect the inhibitory ability of the compounds on the ERK2 enzyme activity and evaluate the activity of the compounds in vitro according to IC50. The ADP-Glo™ Kinase Assay Kit was used in this experiment. Under the action of enzyme, the substrate was phosphorylated and ADP was produced at the same time. The ADP-Glo Reagent was added to remove unreacted ATP in the reaction system. The kinase detection reagent was used to detect the ADP produced by the reaction. In the presence of the compound, the inhibition rate of the compound was calculated by measuring the signal value.
Enzyme and substrate preparation: ERK2 (1230-KS-010, R&D) and substrate (Custom peptides, Gill Biochemical) were prepared to be 0.75 ng/μl and 1500 μM in the buffer (40 mM Tris, 20 mM MgCl2, 0.1 mg/mL BSA, 50 μM DTT). The enzyme solution and substrate solution were then prepared into a mixed solution at a volume ratio of 2:1 for later use. ATP was diluted to 500 μM with the buffer. The compounds were dissolved in DMSO (dimethyl sulfoxide, Shanghai Titan Scientific Co., Ltd.) to prepare a stock solution with an initial concentration of 20 mM, and then Bravo was used to prepare solutions of the compounds. Finally, a 3 μL of a mixed solution of enzyme and substrate, and 1 μL of different concentrations of the compound (the initial concentration is 50 μM, 4-fold dilution) were added to each well of the 384-well plate, and the plate was incubated at 30° C. for 10 minutes, and finally 1 μL of 500 μM ATP solution was added to each well, and the plate was incubated at 30° C. for 2 hours. Then 5 μL of ADP-Glo was added, and the plate was incubated at 30° C. for 40 minutes. Then 10 μL of Kinase detection buffer was added, and the plate was incubated at 30° C. for 40 minutes. The 384-well plate was taken out and placed in a microplate reader (BMG labtech, PHERAstar FS), and the chemiluminescence was measured by the microplate reader.
(§1) The data were processed and analyzed with Microsoft Excel, Graphpad Prism 5.
(ADP-Glo first removes unused ATP, then detects ADP through luciferase.)

Series [2] concerns Colo205 cells. In words: In vitro proliferation inhibition test on Colo205 tumor cells (CellTiter-Glo). It counts as cell-based. The settings on record: Homo sapiens, COLO 205, 72 h; Colo205 cell proliferation, 3 days of culture, CTG. The procedure:
The purpose of this experiment is to test the inhibitory activity of the compounds on the proliferation of Colo205 cells (CCL-222, ATCC) in vitro. The cells were treated with different concentrations of compounds in vitro. After 3 days of culture, the cell proliferation was detected using CTG (CellTiter-Glo® Luminescent Cell Viability Assay, Promega, catalog number: G7573) reagent. The in vitro activity of the compounds was evaluated according to the IC50 value.
In the following, taking the in vitro proliferation inhibition test method of Colo205 cells as an example, the method in the present disclosure for testing the in vitro proliferation inhibitory activity of the compounds of the present disclosure is described. This method is also applicable to, but not limited to, the in vitro proliferation inhibitory activity test on other tumor cells.
Colo205 cells were digested, centrifuged and then resuspended. The single cell suspension was mixed well, and the density of viable cells was adjusted to 5.0×10^4 cells/ml with cell culture medium (RPMI1640+2% FBS), and 95 μl/well was added to a 96-well cell culture plate. Only 100 μl medium was added to the peripheral wells of the 96-well plate. The culture plate was incubated in an incubator for 24 hours (37° C., 5% CO2).
The compound was dissolved in DMSO (dimethyl sulfoxide, Shanghai Titan Scientific Co., Ltd.) and prepared into a stock solution with an initial concentration of 20 mM. The initial concentration of the small molecule compound is 2 mM, and then 4-fold diluted into to 9 points, and the tenth point is DMSO. Another 96-well plate was taken, 90 μl of cell culture medium (RPMI1640+2% FBS) was added to each well, then 10 μl of different concentrations of the test sample was added to each well, the mixture was mixed well, and then 5 μl of different concentrations of the test sample was added to the cell culture plate, and each sample has two duplicate holes. The culture plate was incubated in the incubator for 3 days (37° C., 5% CO2). The 96-well cell culture plate was taken out, 50 μl CTG solution was added to each well, and the plate was incubated for 10 minutes at room temperature. In a microplate reader (BMG labtech, PHERAstar FS), chemiluminescence was measured with the microplate reader.
as §1
A general note: ATP-based viability assays read luminescence as a measure of living cells.

Series [3] in a line: Pharmacokinetics assay in mice. The class given is in vivo. The settings on record: mouse, po, C57 mice (female), intragastric, 2 mg/kg, plasma; for Vd/F: read-out: Apparent distribution volume Vz/F; for AUC: read-out: Area under curve AUC; for CL/F: read-out: Clearance CLz/F; for half-life: read-out: Half Life T1/2 (converted); for Cmax: read-out: Plasma Concentration Cmax; for MRT: read-out: Residence Time MRT. The procedure:
Mice were used as the test animal. The drug concentration in plasma at different time points was determined by LC/MS/MS method after administration of compound 3-P2, compound 4-P2, compound 9-P2, compound 10-P2, compound 12 and compound 15. The pharmacokinetic behavior of the compounds of the present disclosure in mice was studied, and the pharmacokinetic characteristics were evaluated.
54 of C57 mice (female) were equally divided into 6 groups, which were purchased from Shanghai Jiesijie Laboratory Animal Co., Ltd., with the animal production license number: SOCK (Shanghai) 2013-0006.
A certain amount of compound was weighted, followed by the addition of 5% volume of DMSO and 5% Tween 80 to dissolve it, then followed by the addition of 90% normal saline to prepare a colorless and clear solution of 0.1 mg/mL.
After an overnight fast, C57 mice were intragastrically administered the test compound at an administration dose of 2 mg/kg and an administration volume of 0.2 ml/10 g.
The mice were intragastrically administered the test compounds. 0.1mL of blood was taken before the administration and at 0.25, 0.5, 1.0, 2.0, 4.0, 6.0, 8.0, 11.0, 24.0 hours after the administration. The blood was placed in a heparinized test tube, and centrifuged at 3500 rpm for 10 minutes. The plasma was separated and stored at −20° C.
The content of the test compound in the plasma of mice after […] administration of the test compound at different concentrations was determined: 25 μl of mouse plasma at each time point after the administration was taken, followed by the addition of 50 μl of the internal standard camptothecin solution (100 ng/mL) and 200 μl of acetonitrile. The resulting solution was vortex-mixed for 5 minutes, and centrifuged for 10 minutes (4000 rpm). 4μl of the supernatant was taken from the plasma samples for LC/MS/MS analysis.

T1 sequence (P28482 whole entry): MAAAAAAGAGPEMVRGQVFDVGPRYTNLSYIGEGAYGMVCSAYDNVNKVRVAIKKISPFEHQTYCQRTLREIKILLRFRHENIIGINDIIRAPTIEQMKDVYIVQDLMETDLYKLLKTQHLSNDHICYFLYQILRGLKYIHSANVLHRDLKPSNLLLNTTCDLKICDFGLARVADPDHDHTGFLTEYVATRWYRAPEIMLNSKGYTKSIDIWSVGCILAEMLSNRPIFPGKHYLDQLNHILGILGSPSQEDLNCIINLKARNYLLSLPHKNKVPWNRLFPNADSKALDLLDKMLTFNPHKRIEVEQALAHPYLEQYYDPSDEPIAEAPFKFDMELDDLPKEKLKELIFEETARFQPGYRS

As for `O=C(CN1CCc2sc(-c3nc(NC4CCOCC4)ncc3Cl)cc2C1=O)N[C@H](CO)c1cccc(Cl)c1` [Example 1, (S)-2-(2-(5-Chloro-2-((tetrahydro-2H-pyran-4-yl)amino)pyrimidin-4-yl)-4-oxo-6,7-dihydrothieno[3,2-c]pyridin-5(4H)-yl)-N-(1-(3-chlorophenyl)-2-hydroxyethyl)acetamide], the IC50 (as a rule, the concentration at which inhibition is half-maximal) in series [1] came out at 1 nM; in series [2], 8 nM.
Turning to `CC1(C)c2sc(-c3nc(NC4CCOCC4)ncc3Cl)cc2C(=O)N1CC(=O)N[C@H](CO)c1cccc(Cl)c1` [Example 2, (S)-2-(2-(5-Chloro-2-((tetrahydro-2H-pyran-4-yl)amino)pyrimidin-4-yl)-6,6-dimethyl-4-oxo-4,6-dihydro-5H-thieno[2,3-c]pyrrol-5-yl)-N-(1-(3-chlorophenyl)-2-hydroxyethyl)acetamide], the IC50 in series [1] worked out at 3 nM.
Consider `Cc1cccc([C@@H](CO)NC(=O)[C@H](C)N2CCc3sc(-c4nc(NC5CCOCC5)ncc4Cl)cc3C2=O)c1` [Example 3-P1, (S)-2-(2-(5-Chloro-2-((tetrahydro-2H-pyran-4-yl)amino)pyrimidin-4-yl)-4-oxo-6,7-dihydrothieno[3,2-c]pyridin-5(4H)-yl)-N-((S)-2-hydroxy-1-(m-methylphenyl)ethyl)propionamide], for which the IC50 in series [1] was 203 nM.
For `Cc1cccc([C@@H](CO)NC(=O)[C@@H](C)N2CCc3sc(-c4nc(NC5CCOCC5)ncc4Cl)cc3C2=O)c1` [Example 3-P2, (R)-2-(2-(5-Chloro-2-((tetrahydro-2H-pyran-4-yl)amino)pyrimidin-4-yl)-4-oxo-6,7-dihydrothieno[3,2-c]pyridin-5(4H)-yl)-N-((S)-2-hydroxy-1-(m-methylphenyl)ethyl)propionamide], in series [3], the Vd/F was 2.98 L/kg, the AUC (commonly concentration integrated over time) is 914 ng·h/mL, the CL/F came to 36.5 mL/min/kg and the half-life was 0.945 h. Further, in series [3], the Cmax was found to be 708 ng/mL and the MRT – broadly, a mean duration of stay, worked out from the concentration-time curve – turned out to be 1.16 h. For the same molecule, in series [1], it took 4 nM to reach half-maximal inhibition (IC50). In series [2], this molecule showed a half-inhibitory concentration (IC50) of 26 nM.
For the molecule `C[C@@H](C(=O)N[C@H](CO)c1cccc(Cl)c1)N1CCc2sc(-c3nc(NC4CCOCC4)ncc3Cl)cc2C1=O` [Example 4-P1, (S)-2-(2-(5-Chloro-2-((tetrahydro-2H-pyran-4-yl)amino)pyrimidin-4-yl)-4-oxo-6,7-di hydrothieno[3,2-c]pyridin-5(4H)-yl)-N-((S)-1-(3-chlorophenyl)-2-hydroxyethyl)propionamide], the IC50 in series [1] stood at 434 nM.
Regarding `C[C@H](C(=O)N[C@H](CO)c1cccc(Cl)c1)N1CCc2sc(-c3nc(NC4CCOCC4)ncc3Cl)cc2C1=O` [Example 4-P2], in series [3], the Vd/F came to 8.09 L/kg, the AUC was 364 ng·h/mL, the CL/F stood at 91.5 mL/min/kg and the half-life is 1.02 h. For the same molecule, in series [3], the Cmax came out at 376 ng/mL and the MRT was 1.14 h. Besides, it took 6 nM to reach half-maximal inhibition in series [1] (IC50). Also, the IC50 in series [2] is 29 nM.
In turn, `CC(C(=O)N[C@H](CO)c1cccc(Cl)c1)N1C(=O)c2cc(-c3nc(NC4CCOCC4)ncc3Cl)sc2C1(C)C` (stereo partly drawn) [Example 5, 2-(2-(5-Chloro-2-((tetrahydro-2H-pyran-4-yl)amino)pyrimidin-4-yl)-6,6-dimethyl-4-oxo-4,6-dihydro-5H-thieno[2,3-c]pyrrol-5-yl)-N-((S)-1-(3-chlorophenyl)-2-hydroxyethyl)propionamide] had an IC50 in series [1] of 22 nM.
The same measure, in the same setting: the same measure for `O=C(CN1CCc2sc(-c3ccnc(NC4CCOCC4)n3)cc2C1=O)N[C@H](CO)c1cccc(Cl)c1` [Example 6, (S)-N-(1-(3-Chlorophenyl)-2-hydroxyethyl)-2-(4-oxo-2-(2-((tetrahydro-2H-pyran-4-yl)amino)pyrimidin-4-yl)-6,7-dihydrothieno[3,2-c]pyridin-5(4H)-yl)acetamide]: 29 nM.
For `Cc1cccc([C@@H](CO)NC(=O)CN2CCc3sc(-c4nc(Nc5ccnn5C)ncc4C)cc3C2=O)c1` [Example 7, (S)-N-(2-Hydroxy-1-(m-methylphenyl)ethyl)-2-(2-(5-methyl-2-((1-methyl-1H-pyrazol-5-yl)amino)pyrimidin-4-yl)-4-oxo-6,7-dihydrothieno[3,2-c]pyridin-5(4H)-yl)acetamide], the values for the IC50 in series [1] and in series [2] were 3 nM and 38 nM, respectively.
Take `COc1cc(F)cc([C@@H](CO)NC(=O)[C@H](C)N2CCc3sc(-c4nc(NC5CCOCC5)ncc4Cl)cc3C2=O)c1` [Example 9-P1, (S)-2-(2-(5-Chloro-2-((tetrahydro-2H-pyran-4-yl)amino)pyrimidin-4-yl)-4-oxo-6,7-dihydrothieno[3,2-c]pyridin-5(4H)-yl)-N-((S)-1-(3-fluoro-5-methoxyphenyl)-2-hydroxyethyl)prop ionamide]: the IC50 in series [1] amounted to 410 nM.
For `Cc1cccc([C@@H](CO)NC(=O)[C@@H](C)N2CCc3sc(-c4nc(N[C@@H](C)CO)ncc4Cl)cc3C2=O)c1` [Example 13, (R)-2-(2-(5-Chloro-2-(((S)-1-hydroxypropan-2-yl)amino)pyrimidin-4-yl)-4-oxo-6,7-dihydrothieno[3,2-c]pyridin-5(4H)-yl)-N-((S)-2-hydroxy-1-(m-methylphenyl)ethyl)propionamide], the concentration for half-maximal inhibition (IC50) worked out at 9 nM in series [1] and 26 nM in series [2].

The record behind these values is patent US20220213119A1, “THIENOHETEROCYCLIC DERIVATIVE, PREPARATION METHOD THEREFOR AND MEDICAL USE THEREOF” (Jiangsu Hengrui Medicine Ca, Lid., priority 2019, published 2022).
